Source: patent US12157746B2, “Tetrahydro-1H-pyrazino[2,1-a]isoindolylquinoline compounds for the treatment of autoimmune disease” (F. HOFFMANN-LA ROCHE AG, priority 2018, dated 2024)

Tests used:
human TLR8 = target: T1, human TLR8 (Homo sapiens, UniProt Q9NR97); experiment: HEK293-Blue-hTLR-8 cells assay; type: cell-based; conditions: HEK293-Blue-hTLR8 cells, R848 stimulation, 20 hrs, SEAP reporter; read-out: HEK/hTLR8 IC50
T1 sequence (Q9NR97 27-1041): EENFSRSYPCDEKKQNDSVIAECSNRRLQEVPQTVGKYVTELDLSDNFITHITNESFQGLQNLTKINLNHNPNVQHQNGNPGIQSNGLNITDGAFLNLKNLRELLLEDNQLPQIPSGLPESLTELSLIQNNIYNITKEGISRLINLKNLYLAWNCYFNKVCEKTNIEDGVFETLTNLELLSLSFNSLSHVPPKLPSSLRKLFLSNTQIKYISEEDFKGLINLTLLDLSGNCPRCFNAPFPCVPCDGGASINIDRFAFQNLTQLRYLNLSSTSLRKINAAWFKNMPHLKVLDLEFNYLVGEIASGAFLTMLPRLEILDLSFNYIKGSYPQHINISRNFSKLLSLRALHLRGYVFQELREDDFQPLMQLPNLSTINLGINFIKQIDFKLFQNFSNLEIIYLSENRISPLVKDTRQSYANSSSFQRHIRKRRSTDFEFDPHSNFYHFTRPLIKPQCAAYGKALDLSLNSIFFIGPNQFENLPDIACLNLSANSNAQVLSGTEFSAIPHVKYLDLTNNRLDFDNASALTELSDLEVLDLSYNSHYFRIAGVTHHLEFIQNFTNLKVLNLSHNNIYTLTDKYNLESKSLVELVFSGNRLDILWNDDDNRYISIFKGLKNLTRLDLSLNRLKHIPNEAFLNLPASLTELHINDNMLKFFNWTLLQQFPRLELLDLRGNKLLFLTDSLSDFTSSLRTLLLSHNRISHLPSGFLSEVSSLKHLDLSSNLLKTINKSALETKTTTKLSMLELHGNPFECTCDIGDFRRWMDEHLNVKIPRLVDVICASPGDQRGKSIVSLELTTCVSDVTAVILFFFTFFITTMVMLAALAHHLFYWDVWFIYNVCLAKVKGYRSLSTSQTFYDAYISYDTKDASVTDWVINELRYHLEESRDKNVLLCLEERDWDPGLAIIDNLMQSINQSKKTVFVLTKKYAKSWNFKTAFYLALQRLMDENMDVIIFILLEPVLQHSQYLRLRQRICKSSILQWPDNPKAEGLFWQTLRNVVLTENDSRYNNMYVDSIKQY
In short: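 Antagonism read out in HEK293-Blue-hTLR8 cells carrying an NF-κB/AP-1-driven SEAP reporter, stimulated with R848 (10 μL of 60 uM stock added) alongside serially diluted compound (1% DMSO), 20 h at 37° C. Supernatant SEAP measured with QUANTI-Blue after 2 h at 37° C, absorbance at 620-655 nm.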

[1] = Human microsomal stability assay; type: in vitro ADME; conditions: human liver microsomes 0.5 mg/mL, 37° C., pH 7.4, NADPH regenerating system, 0-30 minutes
Protocol: Human Microsomal Stability Assay
Human liver microsomes (Cat. NO.: 452117, Corning, USA) were preincubated with test compound for 10 minutes at 37° C. in 100 mM potassium phosphate buffer, pH 7.4. The reactions were initiated by adding NADPH regenerating system. The final incubation mixtures contained […] test compound, 0.5 mg/mL liver microsomal protein, 1 mM MgCl2, 1 mM NADP, 1 unit/mL isocitric dehydrogenase and 6 mM isocitric acid in 100 mM potassium phosphate buffer, pH 7.4. After incubation times of 0, 3, 6, 9, 15 and 30 minutes at 37° C., 300 μL of cold ACN (including internal standard) was added to 100 μL incubation mixture to terminate the reaction. Following precipitation and centrifugation, 100 μL supernatant will be taken out and added 300 uL water. The amount of compound remaining in the samples was determined by LC-MS/MS. Controls of no NADPH regenerating system at zero and 30 minutes were also prepared and analyzed. The results were categorized as: low (<7.0 mLJmin/kg), medium (7.0-16.2 mL/min/kg) and high (16.2-23.2 mLJmin/kg).

IC50 (human TLR8) [nM] | CL (h) [1] [mL/min/kg] | SMILES
0.4 | 8.8 | C[C@@H]1CN(c2ccc(C#N)c3ncccc23)C[C@@H]2c3ccc(N4C[C@@H](F)[C@@H](N)C4)cc3CN12 [Example 46, 5-[(4R,10bS)-8-[(3S,4R)-3-amino-4-fluoro-pyrrolidin-1-yl]-4-methyl-3,4,6,10b-tetrahydro-1H-pyrazino[2,1-a]isoindol-2-yl]quinoline-8-carbonitrile]
1.2 | 6.2 | C[C@@H]1CN(c2ccc(C#N)c3ncccc23)C[C@@H]2c3ccc(N4C[C@H](N)[C@@](C)(O)C4)cc3CN12 [Example 45B, 5-[(4R,10bS)-8-[(3S,4S)-4-amino-3-hydroxy-3-methyl-pyrrolidin-1-yl]-4-methyl-3,4,6,10b-tetrahydro-1H-pyrazino[2,1-a]isoindol-2-yl]quinoline-8-carbonitrile]
< 3.2 | 6.2 | C[C@@H]1CN(c2ccc(C#N)c3ncccc23)C[C@@H]2c3ccc(N4CCN[C@H](CO)C4)cc3CN12 [Example 12, 5-[(4R,10bS)-8-[(3S)-3-(hydroxymethyl)piperazin-1-yl]-4-methyl-3,4,6,10b-tetrahydro-1H-pyrazino[2,1-a]isoindol-2-yl]quinoline-8-carbonitrile]
< 3.2 | 8.9 | C[C@@H]1CN(c2ccc(C#N)c3ncccc23)C[C@@H]2c3ccc(N4CCOCC(N)C4)cc3CN12 (stereo partly drawn) [Example 54, 5-[(4R,10bS)-8-(6-amino-1,4-oxazepan-4-yl)-4-methyl-3,4,6,10b-tetrahydro-1H-pyrazino[2,1-a]isoindol-2-yl]quinoline-8-carbonitrile]
4 | 6.2 | C[C@@H]1CN(c2ccc(C#N)n3nccc23)C[C@@H]2c3ccc(N4CC[C@@H](N)C4)cc3CN12 [Example 96, 4-[(4R,10bS)-8-[(3R)-3-aminopyrrolidin-1-yl]-4-methyl-3,4,6,10b-tetrahydro-1H-pyrazino[2,1-a]isoindol-2-yl]pyrazolo[1,5-a]pyridine-7-carbonitrile]
3.6 | 8.6 | C[C@@H]1CN(c2ccc(C#N)n3ncc(F)c23)C[C@@H]2c3ccc(N4C[C@H](N)[C@@](C)(O)C4)cc3CN12 [Example 112, 4-[(4R,10bS)-8-[(3S,4S)-4-amino-3-hydroxy-3-methyl-pyrrolidin-1-yl]-4-methyl-3,4,6,10b-tetrahydro-1H-pyrazino[2,1-a]isoindol-2-yl]-3-fluoro-pyrazolo[1,5-a]pyridine-7-carbonitrile]
< 3.2 | 6.2 | C[C@@H]1CN(c2ccc(C#N)c3ncccc23)C[C@@H]2c3ccc(N4CCNC[C@H]4CO)cc3CN12 [Example 11, 5-[(4R,10S)-8-[(2S)-2-(hydroxymethyl)piperazin-1-yl]-4-methyl-3,4,6,10b-tetrahydro-1H-pyrazino[2,1-a]isoindol-2-yl]quinoline-8-carbonitrile]
< 3.2 | 6.2 | CO[C@@H]1CN(c2ccc3c(c2)CN2C3CN(c3ccc(C#N)c4ncccc34)C[C@H]2C)C[C@@H]1N (relative stereo) [Example 17, 5-[(4R,10bS)-8-[cis-3-amino-4-methoxy-pyrrolidin-1-yl]-4-methyl-3,4,6,10b-tetrahydro-1H-pyrazino[2,1-a]isoindol-2-yl]quinoline-8-carbonitrile]
< 0.3 | 6.2 | C[C@@H]1CN(c2ccc(C#N)c3ncccc23)C[C@@H]2c3ccc(N4CC(C)(N)C4)cc3CN12 [Example 39, 5-[(4R,10bS)-8-(3-amino-3-methyl-azetidin-1-yl)-4-methyl-3,4,6,10b-tetrahydro-1H-pyrazino[2,1-a]isoindol-2-yl]quinoline-8-carbonitrile]
< 3.2 | 8.5 | CO[C@H]1CN(c2ccc3c(c2)CN2C3CN(c3ccc(C#N)c4ncccc34)C[C@H]2C)C[C@@H]1N (single isomer, unassigned) [Example 16A]
